According to patent US4994473A, “Pyridyl containing insecticides” (ICI Americas Inc., priority 1988, dated 1991):

Experiments:
[1] = test system: Heliothis virescens; assay: Tobacco budworm egg dip test; type: in vivo, Tobacco Budworm Heliothis virescens (Fabricius); settings: 2-day old eggs (TBW-E), percent of test compound in solution
Protocol: (§1) The compounds in Table I above were tested for insecticidal activity using the following testing procedures. LC50 values, based on the results of these tests and calculated according to dosage-mortality curves, are expressed in Table II.
Tobacco Budworm Heliothis virescens (Fabricius)
Eggs: Paper towel patches of 2-day old eggs of the tobacco budworm were dipped in acetone solutions of the test compound and placed in petri dishes containing a portion of larval rearing medium. Treated eggs were maintained at 78° F. and mortality was recorded after all control eggs had hatched and the young larvae were feeding on the media. Test concentrations ranged from 0.1% downward. The LC-50 value is expressed below in Table II under the heading "TBW-E" in terms of percent of the test compound in the solution.

[2] = test system: Diabrotica undecimpunctata undecimpunctata; assay: Western spotted cucumber beetle larvae soil test; type: in vivo; settings: Diabrotica eggs/larvae; ppm of the test compound in the soil
Protocol: as §1
Western Spotted Cucumber Beetle Larvae Diabrotica undecimpunctata undecimpunctata (Mannherheim)
Ten grams of moist potting soil was placed in a plastic cup. The test compound was dissolved in acetone. A 0.05 ml aliquot of the test sample, diluted to the desired concentration, was added to the soil. The cup was capped and the soil was mixed on a vortex mixer for approximately 15 seconds. An indentation was made on the surface of the soil and approximately 50 Diabrotica eggs were added. The eggs were covered with soil and maintained at room temperature (approximately 70° F. or 21° C.). Four days later a section of Romaine lettuce (Latuca sativa) leaf was placed in the treated cups. One week later the cups were examined for live larvae. Test concentrations ranged from 25 ppm downward. The LC-50 value is expressed below in Table II under the heading "Diabrotica" in terms of ppm of the test compound in the soil.

[3] = test system: Tetranychus urticae; assay: Two-spotted mite acaricidal test on pinto bean plants; type: in vivo, two-spotted mite Tetranychus urticae (Koch); settings: percent concentration in solution, 5-7 days; for LC50 2-SM A: adults; for LC50 2-SM E: eggs
Text: Acaricidal Evaluation Test
The two-spotted mite (2SM) [Tetranychus urticae (Koch)]was employed in tests for miticides. The test procedure was as follows:
Pinto bean plants (Phaseolus sp.) approximately 10 cm tall, were transplanted into sandy loam soil in small cups and thoroughly infested with two-spotted mites of mixed ages and sexes. Twenty-four hours later the infested plants were inverted and dipped for 2-3 seconds in 50--50 acetone-water solutions of the test compound. Treated plants were held in the greenhouse, and 5-7 days later mortality was determined for both adult mites and the nymphs hatching from eggs which were on the plants at the time of treatment. Test concentrations ranged from 0.05% downward. The LC-50 value is expressed below in Table II under the headings "2SM-A" (i.e., adults) and "2SM-E" (i.e. eggs) in terms of percent concentration of the test compound in the solution.

[4] = test system: Musca domestica; assay: Housefly contact test, mortality after 48 hours; type: in vivo, Housefly Musca domestica; settings: μg of the test compound per 25 female flies
Protocol: as §1
The test compound was diluted in acetone and aliquots pipetted onto the bottom of aluminum dishes. To ensure even spreading of the chemical on the bottom of the dishes, 1 ml of acetone containing 0.01% peanut oil was also added to each dish. After all solvents had evaporated, the dishes were placed in circular cardboard cages containing 25 female houseflies, 1-2 days old. The cages were covered on the bottom with cellophane and on the top with tulle netting, and each contained a sugar-water saturated cotton plug for maintenance of the flies. Mortality was recorded after 48 hours. Test levels ranged from 100 μg/25 female houseflies downward. The LC-50 value is expressed below in Table II under the heading "HF", in terms of μg of the test compound per 25 female flies.

[5] = test system: Trichoplusia ni; assay: Cabbage looper larvae leaf-dip test; type: in vivo, Cabbage Looper Trichoplusia ni (Hubner); settings: second instar larvae, percent of test compound in solution, 3-5 days
Protocol: as §1
Cabbage Looper Trichoplusia ni (Hubner)
The test compound was diluted in a 50--50 acetone-water solution Cotyledons of hyzini squash (Calabacita abobrinha), approximately 1×1.5 inches, were immersed in the test solutions for 2-3 seconds and placed on a wire screen to dry. The dried leaves were p1aced in petri dishes containing a moistened piece of filter paper and infested with 5 secondinstar cabbage looper larvae. The dishes were placed in a high humidity chamber. Mortality of the larvae was recorded 3-5 days later. Test concentrations ranged from 0.1% downward. The LC-50 value is expressed below in Table II under the heading "CL" in terms of percent of the test compound in solution.

[6] = test system: Aphis fabae; assay: Black bean aphid spray test on nasturtium plants, mortality after 48 hours; type: in vivo, Black Bean Aphid Aphis fabae (Scop.); settings: mixed ages, percent of test compound in sprayed solution
Protocol: as §1
Black Bean Aphid Aphis fabae (Scop.)
Nasturtium plants (Tropaeolum sp.) approximately 5 cm tall, were transplanted into sandy loam soil in small cups and infested with 25-50 black bean aphids of mixed ages. Twenty-four hours later they were sprayed to the point of runoff with 50--50 acetone-water solutions of the test compound. Treated plants were held in the greenhouse and mortality was recorded after 48 hours. Test concentrations ranged from 0.05% downward. The LC-50 value is expressed below in Table II under the heading "BA" in terms of percent of the test compound in the sprayed solution.

CC(C)C(=Nc1ccc(OCC(F)(F)F)nc1)OCc1cccc(Oc2ccc(Cl)cc2)n1 [Compound 46]
LC50 TBW [1]: 0.017%
LC50 Diabrotica [2]: > 25 ppm
LC50 2-SM A [3]: 0.006%
LC50 2-SM E [3]: 0.006%
LC50 HF [4]: < 100 µg
LC50 CL [5]: 0.00027%
LC50 BA [6]: 0.0003%

C=C(C)C(=Nc1ccc(Cl)nc1)OCc1cccc(Oc2ccccc2)c1 [Compound 47]
LC50 TBW [1]: < 0.1%
LC50 Diabrotica [2]: > 25 ppm
LC50 2-SM A [3]: > 0.05%
LC50 2-SM E [3]: > 0.05%
LC50 HF [4]: < 100 µg
LC50 CL [5]: < 0.1%
LC50 BA [6]: 0.05%

C=C(C)C(=Nc1ccc(Cl)nc1)OCc1ccc(F)c(Oc2ccc(Cl)cc2)c1 [Compound 48]
LC50 TBW [1]: < 0.1%
LC50 Diabrotica [2]: > 25 ppm
LC50 2-SM A [3]: > 0.05%
LC50 2-SM E [3]: > 0.05%
LC50 HF [4]: < 100 µg
LC50 CL [5]: < 0.1%
LC50 BA [6]: < 0.05%

C=C(C)C(=Nc1ccc(Cl)nc1)OCc1ccc(F)c(Oc2ccccc2)c1 [Compound 49]
LC50 TBW [1]: 0.1%
LC50 Diabrotica [2]: > 25 ppm
LC50 2-SM A [3]: > 0.05%
LC50 2-SM E [3]: > 0.05%
LC50 HF [4]: < 100 µg
LC50 CL [5]: < 0.1%
LC50 BA [6]: < 0.05%
